Reference: PubChem BioAssay AID248 (DTP/NCI, 2004)
Toxic doses and inconclusive results are not listed. No stated cut-off is given here; in the data, active means T/C of 150% or more; inactive means T/C below 125%.

Tested on: L1210 leukemia ip in BDF1 mice, survival T/C
Assay: NCI In Vivo Anticancer Drug Screen. Data for tumor model L1210 Leukemia (intraperitoneal) in B6D2F1 (BDF1) mice
Settings: endpoint: mean survival time, higher = longer survival
In short: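 Value reflects the ratio of survival in compound-treated mice to survival in vehicle-treated controls, with both groups carrying the same transplanted tumor.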

[1] = dose: 100.0 mg/kg/injection, schedule: Q04DX002 (ip), vehicle: saline
[2] = dose: 200.0 mg/kg/injection, schedule: Q04DX002 (ip), vehicle: saline

Measured: T/C

NCC1OCOC2C(C(=O)O)OCOC12 (configuration not stated)
inactive: dose: 50.0 mg/kg/injection, schedule: Q04DX002 (ip), vehicle: saline 101 % of control | [1] 96 % of control | [2] 101 % of control | dose: 400.0 mg/kg/injection, schedule: Q04DX002 (ip), vehicle: saline 96 % of control

CCN(CC)CC(=O)NCC(CCN1CCCC1)(CC(C)C)c1cccc2ccccc12 (configuration not stated)
inactive: [1] 97 % of control | [2] 94 % of control

NCc1ccccn1
inactive: dose: 100.0 mg/kg/injection, schedule: Q01DX001 (ip), vehicle: saline 98 % of control | dose: 400.0 mg/kg/injection, schedule: Q01DX001 (ip), vehicle: saline 95 % of control

CCC1CN2C(=N1)c1ccccc1-c1cc(Cl)cc(Cl)c12 (configuration not stated)
inactive: dose: 100.0 mg/kg/injection, schedule: Q01DX005 (ip), vehicle: Klucel (hydroxypropylcellulose) (HPC) 88 % of control | dose: 100.0 mg/kg/injection, schedule: Q04DX002 (ip), vehicle: Klucel (hydroxypropylcellulose) (HPC) 107 % of control | dose: 200.0 mg/kg/injection, schedule: Q01DX005 (ip), vehicle: Klucel (hydroxypropylcellulose) (HPC) 94 % of control | dose: 200.0 mg/kg/injection, schedule: Q04DX002 (ip), vehicle: Klucel (hydroxypropylcellulose) (HPC) 101 % of control | dose: 400.0 mg/kg/injection, schedule: Q01DX005 (ip), vehicle: Klucel (hydroxypropylcellulose) (HPC) 102 % of control | dose: 400.0 mg/kg/injection, schedule: Q04DX002 (ip), vehicle: Klucel (hydroxypropylcellulose) (HPC) 101 % of control

CC(C(O)c1ccc2cc(Br)c3ccccc3c2c1)N(C)C (configuration not stated)
inactive: dose: 55.0 mg/kg/injection, schedule: Q01DX Z (ip), vehicle: methylcellulose (MC) 101 % of control | dose: 83.0 mg/kg/injection, schedule: Q01DX Z (ip), vehicle: methylcellulose (MC) 101 % of control | dose: 125.0 mg/kg/injection, schedule: Q01DX Z (ip), vehicle: methylcellulose (MC) 101 % of control

CC1(c2cccnc2)OCCO1
inactive: dose: 75.0 mg/kg/injection, schedule: Q01DX001 (ip), vehicle: saline 97 % of control | dose: 150.0 mg/kg/injection, schedule: Q01DX001 (ip), vehicle: saline 98 % of control | dose: 300.0 mg/kg/injection, schedule: Q01DX001 (ip), vehicle: saline 95 % of control

CC(CC(C)O)=NCCN=C(C)CC(C)O.[Ni] (configuration not stated)
inactive: dose: 6.25 mg/kg/injection, schedule: Q01DX009 (ip), vehicle: saline with Tween-80 108 % of control | dose: 12.5 mg/kg/injection, schedule: Q01DX009 (ip), vehicle: saline with Tween-80 89 % of control

Fc1ccc(C(=S)Nc2ccccc2)cc1
inactive: dose: 100.0 mg/kg/injection, schedule: Q01DX001 (ip), vehicle: acetone 104 % of control | dose: 200.0 mg/kg/injection, schedule: Q01DX001 (ip), vehicle: acetone 98 % of control | dose: 400.0 mg/kg/injection, schedule: Q01DX001 (ip), vehicle: acetone 92 % of control

NC(N)=N/N=C(\C(=N\N=C(N)N)c1ccccc1)c1ccccc1
inactive: dose: 60.0 mg/kg/injection, schedule: Q01DX Z (oral), vehicle: methylcellulose (MC) 98 % of control | dose: 120.0 mg/kg/injection, schedule: Q01DX Z (oral), vehicle: methylcellulose (MC) 96 % of control | dose: 240.0 mg/kg/injection, schedule: Q01DX Z (oral), vehicle: methylcellulose (MC) 94 % of control | dose: 480.0 mg/kg/injection, schedule: Q01DX Z (oral), vehicle: methylcellulose (MC) 91 % of control

CCOC(=O)/C=C(\CC(=O)OCC)Nc1ccc(OC)cc1
inactive: dose: 50.0 mg/kg/injection, schedule: Q01DX009 (ip), vehicle: saline 89 % of control | dose: 100.0 mg/kg/injection, schedule: Q01DX009 (ip), vehicle: saline 91 % of control | dose: 100.0 mg/kg/injection, schedule: Q04DX003 (ip), vehicle: acetone 91 % of control | dose: 200.0 mg/kg/injection, schedule: Q04DX003 (ip), vehicle: acetone 100 % of control | dose: 400.0 mg/kg/injection, schedule: Q04DX003 (ip), vehicle: acetone 97 % of control

CC1(C)N=C(N)N=C(N)N1c1cccc(Oc2ccc(N)cc2)c1
inactive: dose: 25.0 mg/kg/injection, schedule: Q04DX003 (ip), vehicle: Klucel (hydroxypropylcellulose) (HPC) 103 % of control | dose: 50.0 mg/kg/injection, schedule: Q04DX003 (ip), vehicle: Klucel (hydroxypropylcellulose) (HPC) 110 % of control

CCCCNC(=S)NN=C(N)N
inactive: dose: 100.0 mg/kg/injection, schedule: Q04DX002 (ip), vehicle: saline with Tween-80 96 % of control | dose: 200.0 mg/kg/injection, schedule: Q04DX002 (ip), vehicle: saline with Tween-80 100 % of control | dose: 400.0 mg/kg/injection, schedule: Q04DX002 (ip), vehicle: saline with Tween-80 92 % of control

COc1ccc(C=O)cc1OCCCCCOc1cc(C=O)ccc1OC
inactive: dose: 50.0 mg/kg/injection, schedule: Q01DX009 (ip), vehicle: Klucel (hydroxypropylcellulose) (HPC) 86 % of control | dose: 100.0 mg/kg/injection, schedule: Q01DX009 (ip), vehicle: Klucel (hydroxypropylcellulose) (HPC) 101 % of control | dose: 200.0 mg/kg/injection, schedule: Q01DX009 (ip), vehicle: Klucel (hydroxypropylcellulose) (HPC) 90 % of control
